Assay results taken from patent publication US12692264B2, “Pyrimidine or pyridine derivative, preparation method therefor, and application thereof in pharmacy” (ABBISKO THERAPEUTICS CO., LTD., priority 2021, dated 2026).

How the values were obtained:
Format in all cases: cell-based
A431 (EGFR-WT) = assay: Cell proliferation study (CellTiter-Glo, 72 hrs), A431; conditions: Homo sapiens, A-431, A431 cells, CTG, * = average of multiple measurements
In short: (§1)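 Cells were seeded overnight, then exposed for 72 hrs at 37 °C, 5% CO2 to 9 concentrations in 3.16-fold steps, 0.1% DMSO final, triplicate wells. Viability was read by CellTiter-Glo luminescence, with a T0 plate read at dosing. IC50 came from nonlinear sigmoidal dose-response fits.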

[1] = molecular target: Ba/F3 EGFR-V769_D770insASV (Homo sapiens, UniProt P00533, DUP767-769, cells depend on it); assay: Cell proliferation study (CellTiter-Glo, 72 hrs), Ba/F3 EGFR-V769_D770insASV; conditions: CTG, * = average of multiple measurements, read-out: Ba/F3 EGFR-V769_D770insASV IC50
Sequence of Ba/F3 EGFR-V769_D770insASV (P00533 with tags, fused parts or gaps DUP767-769): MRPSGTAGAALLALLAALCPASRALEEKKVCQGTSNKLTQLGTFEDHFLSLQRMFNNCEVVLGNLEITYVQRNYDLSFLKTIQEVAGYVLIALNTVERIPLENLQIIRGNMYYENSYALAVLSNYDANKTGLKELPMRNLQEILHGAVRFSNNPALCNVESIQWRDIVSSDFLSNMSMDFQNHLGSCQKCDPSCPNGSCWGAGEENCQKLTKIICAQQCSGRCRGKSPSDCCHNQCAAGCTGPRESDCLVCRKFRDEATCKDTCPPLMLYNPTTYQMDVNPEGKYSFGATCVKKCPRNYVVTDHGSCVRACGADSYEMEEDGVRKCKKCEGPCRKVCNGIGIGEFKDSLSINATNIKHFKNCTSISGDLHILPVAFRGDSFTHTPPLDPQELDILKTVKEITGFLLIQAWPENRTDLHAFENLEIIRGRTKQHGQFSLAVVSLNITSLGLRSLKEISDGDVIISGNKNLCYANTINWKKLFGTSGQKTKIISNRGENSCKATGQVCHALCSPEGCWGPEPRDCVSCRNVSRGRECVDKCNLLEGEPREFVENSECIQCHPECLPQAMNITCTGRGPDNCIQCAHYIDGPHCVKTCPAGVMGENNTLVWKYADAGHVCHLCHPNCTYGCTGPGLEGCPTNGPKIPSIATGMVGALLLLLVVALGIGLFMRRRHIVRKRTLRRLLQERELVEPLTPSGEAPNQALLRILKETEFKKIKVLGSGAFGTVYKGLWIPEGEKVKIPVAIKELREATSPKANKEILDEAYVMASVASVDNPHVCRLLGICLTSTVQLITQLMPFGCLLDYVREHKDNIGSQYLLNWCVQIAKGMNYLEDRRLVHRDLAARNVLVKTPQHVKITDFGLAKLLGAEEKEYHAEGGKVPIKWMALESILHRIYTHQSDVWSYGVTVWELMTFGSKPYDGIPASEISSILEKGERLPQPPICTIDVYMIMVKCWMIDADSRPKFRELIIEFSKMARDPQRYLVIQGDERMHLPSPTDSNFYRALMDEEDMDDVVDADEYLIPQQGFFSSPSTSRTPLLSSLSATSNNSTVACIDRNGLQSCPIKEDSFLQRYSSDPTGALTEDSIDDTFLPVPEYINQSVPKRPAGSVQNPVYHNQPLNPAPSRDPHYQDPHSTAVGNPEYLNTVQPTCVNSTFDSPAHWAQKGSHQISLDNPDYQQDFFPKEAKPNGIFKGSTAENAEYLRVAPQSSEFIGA
In short: as §1

[2] = molecular target: Ba/F3 EGFR-D770-N771ins_SVD (Homo sapiens, UniProt P00533, DUP768-770, cells depend on it); assay: Cell proliferation study (CellTiter-Glo, 72 hrs), Ba/F3 EGFR-D770-N771ins_SVD; conditions: CTG, * = average of multiple measurements, read-out: Ba/F3 EGFR-D770-N771ins_SVD IC50
Sequence of Ba/F3 EGFR-D770-N771ins_SVD (P00533 with tags, fused parts or gaps DUP768-770): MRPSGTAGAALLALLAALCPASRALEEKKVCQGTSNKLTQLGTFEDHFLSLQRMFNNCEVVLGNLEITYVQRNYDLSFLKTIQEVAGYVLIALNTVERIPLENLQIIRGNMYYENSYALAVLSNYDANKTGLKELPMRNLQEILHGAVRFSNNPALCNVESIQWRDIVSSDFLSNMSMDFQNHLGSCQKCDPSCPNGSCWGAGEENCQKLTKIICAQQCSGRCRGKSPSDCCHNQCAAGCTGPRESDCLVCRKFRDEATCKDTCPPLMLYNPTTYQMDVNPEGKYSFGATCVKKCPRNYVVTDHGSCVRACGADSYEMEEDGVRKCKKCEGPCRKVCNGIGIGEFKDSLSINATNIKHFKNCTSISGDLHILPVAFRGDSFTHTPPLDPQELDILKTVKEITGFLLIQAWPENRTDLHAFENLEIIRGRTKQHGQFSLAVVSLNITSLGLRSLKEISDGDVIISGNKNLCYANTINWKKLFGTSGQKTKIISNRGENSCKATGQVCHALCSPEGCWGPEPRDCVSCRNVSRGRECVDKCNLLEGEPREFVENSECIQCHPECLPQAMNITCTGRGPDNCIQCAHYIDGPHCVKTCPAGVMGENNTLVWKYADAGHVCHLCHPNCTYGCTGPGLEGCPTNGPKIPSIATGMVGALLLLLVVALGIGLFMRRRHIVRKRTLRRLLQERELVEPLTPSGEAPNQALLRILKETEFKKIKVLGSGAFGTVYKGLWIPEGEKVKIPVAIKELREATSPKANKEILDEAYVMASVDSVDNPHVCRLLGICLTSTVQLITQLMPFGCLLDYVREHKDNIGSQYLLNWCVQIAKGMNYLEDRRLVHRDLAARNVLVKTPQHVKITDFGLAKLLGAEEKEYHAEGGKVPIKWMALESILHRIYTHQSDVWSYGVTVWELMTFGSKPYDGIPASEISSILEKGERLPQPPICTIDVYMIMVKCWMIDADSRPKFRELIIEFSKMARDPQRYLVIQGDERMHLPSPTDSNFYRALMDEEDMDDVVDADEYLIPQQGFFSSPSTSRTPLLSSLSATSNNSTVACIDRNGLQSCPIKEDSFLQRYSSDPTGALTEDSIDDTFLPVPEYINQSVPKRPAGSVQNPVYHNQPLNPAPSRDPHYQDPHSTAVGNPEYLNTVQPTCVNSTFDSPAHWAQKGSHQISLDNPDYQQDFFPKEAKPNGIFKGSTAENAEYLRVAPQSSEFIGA
In short: as §1

| IC50 (A431 (EGFR-WT)) [µM] | GI50 [1] [µM] | GI50 [2] [µM] | SMILES |
| --- | --- | --- | --- |
| 0.0581 | 0.0125 | 0.0258 | C=CC(=O)Nc1cc(Nc2ncc(C(=O)OC(C)C)c(N3CC(C)(C)c4ccccc43)n2)c(OC)cc1N1C[C@@H](F)C[C@@H]1CN(C)C [Example 87, isopropyl 2-((5-acrylamido-4-((2R,4S)-2-((di-methylamino)methyl)-4-fluoro-pyrrolidin-1-yl)-2-methoxy-phenyl)amino)-4-(3,3-dimethyl-indolin-1-yl)pyrimidine-5-carboxylate] |
| 0.185 | 0.0619 | 0.0241 | [2H]C1([2H])N(c2nc(Nc3cc(NC(=O)C=C)c(N(C)C[C@@H]4CCCN4C)cc3OC)ncc2C(=O)OC(C)C)c2ccc(C)nc2C1(C)C [Example 52, isopropyl (S)-2-((5-acrylamido-2-methoxy-4-(methyl((1-methylpyrrolidin-2-yl)methyl)amino)phenyl)amino)-4-(3,3,5-trimethyl-2,3-dihydro-1H-pyrrolo[3,2-b]pyridin-1-yl-2,2-d2)pyrimidine-5-carboxylate] |
| 0.0141 | 0.008 | 0.0098 | C=CC(=O)Nc1cc(Nc2ncc(C(=O)OC(C)C)c(N3CC4(CC4)c4ncccc43)n2)c(OC)cc1N1CCC[C@@H]1CN(C)C [Example 86, isopropyl (R)-2-((5-acrylamido-4-(2-((dimethyl-amino)methyl)pyrrolidin-1-yl)-2-meth-oxyphenyl)amino)-4-(spiro(cyclopro-pane-1,3′-pyrrolo[3,2-b]pyridin)-1′(2′H)-yl)pyrimidine-5-carboxylate] |
| 0.432 | 0.052 | 0.0228 | C=CC(=O)Nc1cc(Nc2ncc(C(=O)OC(C)C)c(N3CC(C)(C)c4nc(C)ccc43)n2)c(OC)cc1NCCN(C)C [Example 55, isopropyl 2-((5-acrylamido-4-((2-(dimethylami-no)ethyl)amino)-2-methoxy-phenyl)amino)-4-(3,3,5-trimethyl-2,3-dihydro-1H-pyrrolo[3,2-b]pyridin-1-yl)pyrimidine-5-carboxylate] |
| 0.12 | 0.0353 | 0.0248 | [2H]C([2H])([2H])Oc1cc(N(CCN(C([2H])([2H])[2H])C([2H])([2H])[2H])C([2H])([2H])[2H])c(NC(=O)C=C)cc1Nc1ncc(C(=O)OC(C)C)c(N2CC(C)(C)c3nc(C)ccc32)n1 [Example 72, isopropyl 2-((5-acrylamido-4-((2-(bis(methyl-d3)amino)ethyl)(methyl-d3)amino)-2-(methoxy-d3)phenyl)amino)-4-(3,3,5-trimethyl-2,3-dihydro-1H-pyrrolo[3,2-b]pyridin-1-yl)pyrimidine-5-carboxylate] |
| 0.405 | 0.0568 | 0.0246 | C=CC(=O)Nc1cc(Nc2ncc(C(=O)OC(C)C)c(N3CC4(CC4)c4ncccc43)n2)c(OC)cc1N(C)CCN(C)C [Example 21, isopropyl 2-((5-acrylamido-4-((2-(dimethylami-no)ethyl)(methyl)amino)-2-methoxy-phenyl)amino)-4-(spiro(cyclopropane-1,3′-pyrrolo[3,2-b]pyridin)-1′(2′H)-yl)pyrimidine-5-carboxylate] |
| 0.828 | 0.0373 | 0.0302 | C=CC(=O)Nc1cc(Nc2ncc(C(=O)OC(C)C)c(N3CC(C)(C)c4nc(F)ccc43)n2)c(OC)cc1N(C)CCN(C)C [Example 11, isopropyl 2-((5-acrylamido-4-((2-(dimethylami-no)ethyl)(methyl)amino)-2-methoxy-phenyl)amino)-4-(5-fluoro-3,3-dimethyl-2,3-dihydro-1H-pyrrolo[3,2-b]pyridin-1-yl)pyrimidine-5-carboxylate] |
| 0.11 | 0.0183 | 0.0107 | C=CC(=O)Nc1cc(Nc2ncc(C(=O)OC(C)C)c(N3CC(C)(C)c4nc(C)ccc43)n2)c(OC)cc1N1C[C@@H](F)C[C@@H]1CN(C)C [Example 63, isopropyl 2-((5-acrylamido-4-((2R,4S)-2-((dimethylamino)methyl)-4-fluoro-pyrrolidin-1-yl)-2-methoxy-phenyl)amino)-4-(3,3,5-trimethyl-2,3-dihydro-1H-pyrrolo[3,2-b]pyridin-1-yl)pyrimidine-5-carboxylate] |
| 0.353 | 0.0228 | 0.0148 | [2H]C([2H])([2H])N(CCN(C)C)c1cc(OC)c(Nc2ncc(C(=O)OC(C)C)c(N3CC(C)(C)c4nc(C)ccc43)n2)cc1NC(=O)C=C [Example 36, isopropyl 2-((5-acrylamido-4-((2-(dimethylami-no)ethyl)(methyl-d3)amino)-2-methoxy-phenyl)amino)-4-(3,3,5-trimethyl-2,3-dihydro-1H-pyrrolo[3,2-b]pyridin-1-yl)pyrimidine-5-carboxylate] |
| 0.363 | 0.0528 | 0.0297 | C=CC(=O)Nc1cc(Nc2ncc(C(=O)OC(C)C)c(N3CC4(CC4)c4nc(C)ccc43)n2)c(OC)cc1N1CC[C@@H](N(C)C)C1 [Example 26, isopropyl (R)-2-((5-acrylamido-4-(3-(dimethyl-amino)pyrrolidin-1-yl)-2-methoxy-phenyl)amino)-4-(5′-methyl-spiro(cyclopropane-1,3′-pyrrolo[3,2-b]pyridin)-1′(2′H)-yl)pyrimidine-5-carboxylate] |
| 1.42 | 0.0244 | 0.0313 | [2H]C1([2H])N(c2nc(Nc3cc(NC(=O)C=C)c(N4CC[C@@H](N(C)C)C4)cc3OC)ncc2C(=O)OC(C)C)c2ccc(C)nc2C1(C)C [Example 49, isopropyl (R)-2-((5-acrylamido-4-(3-(dimethyl-amino)pyrrolidin-1-yl)-2-methoxy-phenyl)amino)-4-(3,3,5-trimethyl-2,3-dihydro-1H-pyrrolo[3,2-b]pyridin-1-yl-2,2-d2)pyrimidine-5-carboxylate] |
| 0.0561 | 0.0224 | 0.0134 | [2H]C1([2H])N(c2nc(Nc3cc(NC(=O)C=C)c(N(C)CCN(C)C)cc3OC)ncc2C(=O)OC(C)C)c2ccc(C)nc2C1(C)C [Example 47, isopropyl 2-((5-acrylamido-4-((2-(dimethylami-no)ethyl)(methyl)amino)-2-methoxy-phenyl)amino)-4-(3,3,5-trimethyl-2,3-dihydro-1H-pyrrolo[3,2-b]pyridin-1-yl-2,2-d2)pyrimidine-5-carboxylate] |
| 0.177 | 0.242 | 0.0131 | C=CC(=O)Nc1cc(Nc2ncc(C(=O)OC(C)C)c(N3CC(C)(C)c4nc(C#CC)ccc43)n2)c(OC)cc1N(C)CCN(CC)CC [Example 89, isopropyl 2-((5-acrylamido-4-((2-(diethyl-amino)ethyl)(methyl)amino)-2-methoxyphenyl)amino)-4-(3,3-dimethyl-5-(prop-1-yn-1-yl)-2,3-dihydro-1H-pyrrolo[3,2-b]pyridin-1-yl)pyrimidine-5-carboxylate] |
| 0.746 | 0.0666 | 0.0343 | C=CC(=O)Nc1cc(Nc2ncc(C(=O)OC(C)C)c(N3CC(C)(C)c4nc(C=C)ccc43)n2)c(OC)cc1N(C)CCN(C)C [Example 20, isopropyl 2-((5-acrylamido-4-((2-(dimethylami-no)ethyl)(methyl)amino)-2-methoxy-phenyl)amino)-4-(3,3-dimethyl-5-vinyl-2,3-dihydro-1H-pyrrolo[3,2-b]pyridin-1-yl)pyrimidine-5-carboxylate] |
| 0.515 | 0.0371 | 0.0239 | C=CC(=O)Nc1cc(Nc2ncc(C(=O)OC(C)C)c(N3CC(C)(C)c4nc(C)ccc43)n2)c(OC)cc1N(C)CCN1CCC1 [Example 67, isopropyl 2-((5-acrylamido-4-((2-(azetidin-1-yl)ethyl)(methyl)amino)-2-methoxy-phenyl)amino)-4-(3,3,5-trimethyl-2,3-dihydro-1H-pyrrolo[3,2-b]pyridin-1-yl)pyrimidine-5-carboxylate] |
| 0.127 | 0.0488 | 0.0206 | C=CC(=O)Nc1cc(Nc2ncc(C(=O)OC(C)C)c(N3CC4(CC4)c4nc(C)ccc43)n2)c(OC)cc1N(C)CCN(C)C [Example 22, isopropyl 2-((5-acrylamido-4-((2-(dimethylami-no)ethyl)(methyl)amino)-2-methoxy-phenyl)amino)-4-(5′-methylspiro(cyclo-propane-1,3′-pyrrolo[3,2-b]pyridin)-1′(2′H)-yl)pyrimidine-5-carboxylate] |
| 0.879 | 0.0492 | 0.035 | C=CC(=O)Nc1cc(Nc2ncc(C(=O)OC(C)C)c(N3CC(C)(C)c4nc(C)ccc43)n2)c(OC)cc1N(C)CCNC [Example 15, isopropyl 2-((5-acrylamido-2-methoxy-4-(methyl (2-(methylamino)ethyl)amino)phenyl)amino)-4-(3,3,5-trimethyl-2,3-dihydro-1H-pyrrolo[3,2-b]pyridin-1-yl)pyrimidine-5-carboxylate] |
| 0.557 | 0.0215 | 0.0076 | C=CC(=O)Nc1cc(Nc2ncc(C(=O)OC(C)C)c(N3CC(C)(C)c4nc(C#CC)ccc43)n2)c(OC)cc1N(C)CCN(C)C [Example 30, isopropyl 2-((5-acrylamido-4-((2-(dimethylami-no)ethyl)(methyl)amino)-2-methoxy-phenyl)amino)-4-(3,3-dimethyl-5-(prop-1-yn-1-yl)-2,3-dihydro-1H-pyrrolo[3,2-b]pyridin-1-yl)pyrimidine-5-carboxylate] |
